Source: patent publication US20090275594A1, “3-HYDRAZONE PIPERAZINYL RIFAMYCIN DERIVATIVES USEFUL AS ANTIMICROBIAL AGENTS” (priority 2008, published 2009)
In brackets after ≈: the same amount, converted by molar mass.

What was measured:
Assay type in all cases: cell-based
Details in all cases: cation adjusted Mueller-Hinton broth, 35° C., 16-20 hours
[1] = tested on: Enterococcus faecium OC 3312 vancomycin-resistant; experiment: In vitro antibacterial activity, microdilution broth MIC (NCCLS M7-A4), strain A
Description: (§1) Minimum inhibitory concentration (MIC) is an indicator of in vitro antibacterial activity. […] The in vitro antimicrobial activity of representative compounds of the present invention was determined by the microdilution broth method following the test method from the National Committee for Clinical Laboratory Standards (NCCLS). This method is described in the NCCLS Document M7-A4, Vol. 17, No. 2, “Methods for Dilution Antimicrobial Susceptibility Test for Bacteria that Grow Aerobically—Fourth Edition”, which is incorporated herein by reference.
(§2) In this method two-fold serial dilutions of drug in cation adjusted Mueller-Hinton broth were added to wells in microdilution trays. The test organisms were prepared by adjusting the turbidity of actively growing broth cultures so that the final concentration of test organism after it is added to the wells was approximately 5×10^4 CFU/well. Following inoculation of the microdilution trays, the trays were incubated at 35° C. for 16-20 hours and then read. The amount of growth in the wells containing the test compound was compared with the amount of growth in the growth-control wells (no test compound) used in each tray.

[2] = tested on: Staphylococcus aureus ATCC 29213; experiment: In vitro antibacterial activity, microdilution broth MIC (NCCLS M7-A4), strain B
Description: as §1, §2

[3] = tested on: Methicillin-resistant Staphylococcus aureus OC 3726 COL; experiment: In vitro antibacterial activity, microdilution broth MIC (NCCLS M7-A4), strain C
Description: as §1, §2

[4] = tested on: Staphylococcus aureus OC4172; experiment: In vitro antibacterial activity, microdilution broth MIC (NCCLS M7-A4), strain D
Description: as §1, §2

Structure (SMILES)	MIC (μg/mL) A Strain [1] [µg/mL]	MIC (μg/mL) B Strain [2]	MIC (μg/mL) C Strain [3]	MIC (μg/mL) D Strain [4]
COC1C=COC2(C)Oc3c(C)c(O)c4c(O)c(c(C=NN5CCN(Cc6cc(-c7ccccn7)no6)CC5)c(O)c4c3C2=O)NC(=O)C(C)=CC=CC(C)C(O)C(C)C(O)C(C)C(OC(C)=O)C1C (centres unmarked) [Compound 13]	0.06 (≈ 0.062 µM)	≦0.03 μg/mL	≦0.03 μg/mL	≦0.03 μg/mL
COC1C=COC2(C)Oc3c(C)c(O)c4c(O)c(c(C=NN5CCN(Cc6cc(-c7ccc(C(F)(F)F)cc7)no6)CC5)c(O)c4c3C2=O)NC(=O)C(C)=CC=CC(C)C(O)C(C)C(O)C(C)C(OC(C)=O)C1C (centres unmarked) [Compound 7]	1 (≈ 0.967 µM)	0.5 µg/mL (≈ 0.484 µM)	0.25 µg/mL (≈ 0.242 µM)	0.12 µg/mL (≈ 0.116 µM)
COC1C=COC2(C)Oc3c(C)c(O)c4c(O)c(c(C=NN5CCN(CCCc6cc(-c7ccccc7)no6)CC5)c(O)c4c3C2=O)NC(=O)C(C)=CC=CC(C)C(O)C(C)C(O)C(C)C(OC(C)=O)C1C (centres unmarked) [Compound 27]	0.5 (≈ 0.503 µM)	0.5 µg/mL (≈ 0.503 µM)	0.5 µg/mL (≈ 0.503 µM)	0.5 µg/mL (≈ 0.503 µM)
COC1C=COC2(C)Oc3c(C)c(O)c4c(O)c(c(C=NN5CCN(Cc6cc(-c7ccc(F)c(F)c7)no6)CC5)c(O)c4c3C2=O)NC(=O)C(C)=CC=CC(C)C(O)C(C)C(O)C(C)C(OC(C)=O)C1C (centres unmarked) [Compound 6]	0.5 (≈ 0.499 µM)	0.5 µg/mL (≈ 0.499 µM)	0.25 µg/mL (≈ 0.249 µM)	0.25 µg/mL (≈ 0.249 µM)
COC(=O)c1c(-c2ccc(Cl)cc2)noc1CN1CCN(N=Cc2c3c(O)c4c(O)c(C)c5c(c4c2O)C(=O)C(C)(OC=CC(OC)C(C)C(OC(C)=O)C(C)C(O)C(C)C(O)C(C)C=CC=C(C)C(=O)N3)O5)CC1 (centres unmarked) [Compound 18]	1 (≈ 0.945 µM)	1 µg/mL (≈ 0.945 µM)	0.5 µg/mL (≈ 0.472 µM)	0.5 µg/mL (≈ 0.472 µM)
COC1C=COC2(C)Oc3c(C)c(O)c4c(O)c(c(C=NN5CCN(CCc6cc(-c7ccc(Cl)cc7)no6)CC5)c(O)c4c3C2=O)NC(=O)C(C)=CC=CC(C)C(O)C(C)C(O)C(C)C(OC(C)=O)C1C (centres unmarked) [Compound 26]	0.5 (≈ 0.493 µM)	0.5 µg/mL (≈ 0.493 µM)	0.25 µg/mL (≈ 0.246 µM)	0.25 µg/mL (≈ 0.246 µM)
COC1C=COC2(C)Oc3c(C)c(O)c4c(O)c(c(C=NN5CCN(Cc6ccc(-c7ccc(Cl)cc7)s6)CC5)c(O)c4c3C2=O)NC(=O)C(C)=CC=CC(C)C(O)C(C)C(O)C(C)C(OC(C)=O)C1C (centres unmarked) [Compound 21]	2 (≈ 1.97 µM)	2 µg/mL (≈ 1.97 µM)	2 µg/mL (≈ 1.97 µM)	2 µg/mL (≈ 1.97 µM)
COC1C=COC2(C)Oc3c(C)c(O)c4c(O)c(c(C=NN5CCN(Cc6noc(-c7ccc(Cl)cc7)n6)CC5)c(O)c4c3C2=O)NC(=O)C(C)=CC=CC(C)C(O)C(C)C(O)C(C)C(OC(C)=O)C1C (centres unmarked) [Compound 25]	0.5 (≈ 0.499 µM)	0.5 µg/mL (≈ 0.499 µM)	0.25 µg/mL (≈ 0.25 µM)	0.25 µg/mL (≈ 0.25 µM)
